Data reported in PubChem BioAssay (NCI).
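Abbreviation: GI50, concentration required for 50% inhibition of growth. TGI: concentration producing complete growth inhibition.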

Key:
Experiment in all cases: NCI-60 cell line screen, 384-well format
UACC-257 melanoma = tested on: UACC-257 melanoma
MOLT-4 leukemia = tested on: MOLT-4 leukemia
DU-145 prostate = tested on: DU-145 prostate
MDA-MB-231 breast = tested on: MDA-MB-231 breast
SN12C renal = tested on: SN12C renal
HCC-2998 colon = tested on: HCC-2998 colon
U251 glioblastoma = tested on: U251 glioblastoma
RPMI-8226 leukemia = tested on: RPMI-8226 leukemia
OVCAR-5 ovarian = tested on: OVCAR-5 ovarian
HOP-62 NSCLC = tested on: HOP-62 NSCLC
PC-3 prostate = tested on: PC-3 prostate
SF-539 CNS = tested on: SF-539 CNS
NCI-H226 lung = tested on: NCI-H226 lung

Row | Structure (SMILES) | GI50 (UACC-257 melanoma) | TGI (UACC-257 melanoma) | GI50 (MOLT-4 leukemia) | TGI (MOLT-4 leukemia) | GI50 (DU-145 prostate) | TGI (DU-145 prostate) | GI50 (MDA-MB-231 breast) | TGI (MDA-MB-231 breast) | GI50 (SN12C renal) | TGI (SN12C renal) | GI50 (HCC-2998 colon) | TGI (HCC-2998 colon) | GI50 (U251 glioblastoma) | TGI (U251 glioblastoma) | GI50 (RPMI-8226 leukemia) | TGI (RPMI-8226 leukemia) | GI50 (OVCAR-5 ovarian) | TGI (OVCAR-5 ovarian) | GI50 (HOP-62 NSCLC) | TGI (HOP-62 NSCLC) | also measured
1 | c1ccc2c(NCCCN3CCN(CCCNc4c5ccccc5nc5ccccc45)CC3)c3ccccc3nc2c1 | 1390 nM | 2700 nM | 23.2 nM | 50.9 nM | 683 nM | 3490 nM | 506 nM | 2060 nM | 81.6 nM | 348 nM | 391 nM | 1510 nM | 223 nM | 766 nM | 134 nM | 291 nM | 378 nM | 2460 nM | 96.4 nM | 463 nM | GI50 (PC-3 prostate): 1390 nM; TGI (PC-3 prostate): 3750 nM; GI50 (SF-539 CNS): 159 nM; TGI (SF-539 CNS): 1230 nM; GI50 (NCI-H226 lung): 161 nM; TGI (NCI-H226 lung): 1190 nM
2 | CN1CCN(c2ccc(-c3cccc(CN4CCOCC4)c3)cc2NC(=O)c2c[nH]c(=O)cc2C(F)(F)F)CC1 | 15300 nM | 28700 nM | 5860 nM | 11500 nM | 19500 nM | > 100000 nM | 25600 nM | > 94000 nM | > 62100 nM | > 100000 nM | 29900 nM | > 63900 nM | 12100 nM | 30900 nM | 17900 nM | 43400 nM | 40900 nM | > 100000 nM | 21000 nM | > 65300 nM | GI50 (PC-3 prostate): 27000 nM; TGI (PC-3 prostate): > 94600 nM; GI50 (SF-539 CNS): 12300 nM; TGI (SF-539 CNS): 28700 nM; GI50 (NCI-H226 lung): 52500 nM; TGI (NCI-H226 lung): > 100000 nM
